Converted amounts (≈) assume the structure as drawn.
Legend:
Assay type in all cases: functional
Staphylococcus aureus [1] = assay: Antimicrobial activity against Staphylococcus aureus MTCC 96 assessed as diameter of growth inhibition zone at 25 ug/ml after 18-24 hr by agar cup diffusion method; settings: read-out: DIZ
Staphylococcus aureus [2] = assay: Antimicrobial activity against Staphylococcus aureus MTCC 96 assessed as diameter of growth inhibition zone at 100 ug/ml after 18-24 hr by agar cup diffusion method; settings: read-out: DIZ
Penicillium [3] = assay: Antimicrobial activity against Penicillium wild strain assessed as diameter of growth inhibition zone at 250 ug/ml after 48-96 hr by agar cup diffusion method; settings: read-out: DIZ
Aspergillus clavatus [4] = assay: Antimicrobial activity against Aspergillus clavatus MTCC 1323 assessed as diameter of growth inhibition zone at 100 ug/ml after 48-96 hr by agar cup diffusion method; settings: read-out: DIZ
Candida albicans [5] = assay: Antimicrobial activity against Candida albicans MTCC 227 assessed as diameter of growth inhibition zone at 250 ug/ml after 48-96 hr by agar cup diffusion method; settings: read-out: DIZ
Escherichia coli [6] = assay: Antimicrobial activity against Escherichia coli MTCC 443 assessed as diameter of growth inhibition zone at 250 ug/ml after 18-24 hr by agar cup diffusion method; settings: read-out: DIZ
Trichophyton rubrum [7] = assay: Antimicrobial activity against Trichophyton rubrum MTCC 296 assessed as diameter of growth inhibition zone at 25 ug/ml after 48-96 hr by agar cup diffusion method; settings: read-out: DIZ
Klebsiella pneumoniae [8] = assay: Antimicrobial activity against Klebsiella pneumoniae MTCC 109 assessed as diameter of growth inhibition zone at 50 ug/ml after 18-24 hr by agar cup diffusion method; settings: read-out: DIZ
Pseudomonas aeruginosa [9] = assay: Antimicrobial activity against Pseudomonas aeruginosa MTCC 1688 by agar cup diffusion method
Staphylococcus aureus [10] = assay: Antimicrobial activity against Staphylococcus aureus MTCC 96 by agar cup diffusion method
Escherichia coli [11] = assay: Antimicrobial activity against Escherichia coli MTCC 443 assessed as diameter of growth inhibition zone at 25 ug/ml after 18-24 hr by agar cup diffusion method; settings: read-out: DIZ
Pseudomonas aeruginosa [12] = assay: Antimicrobial activity against Pseudomonas aeruginosa MTCC 1688 assessed as diameter of growth inhibition zone at 250 ug/ml after 18-24 hr by agar cup diffusion method; settings: read-out: DIZ
Staphylococcus aureus [13] = assay: Antimicrobial activity against Staphylococcus aureus MTCC 96 assessed as diameter of growth inhibition zone at 50 ug/ml after 18-24 hr by agar cup diffusion method; settings: read-out: DIZ
Streptococcus pyogenes [14] = assay: Antimicrobial activity against Streptococcus pyogenes MTCC 442 assessed as diameter of growth inhibition zone at 50 ug/ml after 18-24 hr by agar cup diffusion method; settings: read-out: DIZ
Aspergillus clavatus [15] = assay: Antimicrobial activity against Aspergillus clavatus MTCC 1323 by agar cup diffusion method
Candida albicans [16] = assay: Antimicrobial activity against Candida albicans MTCC 227 assessed as diameter of growth inhibition zone at 100 ug/ml after 48-96 hr by agar cup diffusion method; settings: read-out: DIZ
Candida albicans [17] = assay: Antimicrobial activity against Candida albicans MTCC 227 assessed as diameter of growth inhibition zone at 25 ug/ml after 48-96 hr by agar cup diffusion method; settings: read-out: DIZ
Pseudomonas aeruginosa [18] = assay: Antimicrobial activity against Pseudomonas aeruginosa MTCC 1688 assessed as diameter of growth inhibition zone at 25 ug/ml after 18-24 hr by agar cup diffusion method; settings: read-out: DIZ
Candida albicans [19] = assay: Antimicrobial activity against Candida albicans MTCC 227 by agar cup diffusion method
Trichophyton rubrum [20] = assay: Antimicrobial activity against Trichophyton rubrum MTCC 296 by agar cup diffusion method
Streptococcus pyogenes [21] = assay: Antimicrobial activity against Streptococcus pyogenes MTCC 442 assessed as diameter of growth inhibition zone at 100 ug/ml after 18-24 hr by agar cup diffusion method; settings: read-out: DIZ
Escherichia coli [22] = assay: Antimicrobial activity against Escherichia coli MTCC 443 assessed as diameter of growth inhibition zone at 100 ug/ml after 18-24 hr by agar cup diffusion method; settings: read-out: DIZ
Streptococcus pyogenes [23] = assay: Antimicrobial activity against Streptococcus pyogenes MTCC 442 by agar cup diffusion method
Trichophyton rubrum [24] = assay: Antimicrobial activity against Trichophyton rubrum MTCC 296 assessed as diameter of growth inhibition zone at 100 ug/ml after 48-96 hr by agar cup diffusion method; settings: read-out: DIZ
Trichophyton rubrum [25] = assay: Antimicrobial activity against Trichophyton rubrum MTCC 296 assessed as diameter of growth inhibition zone at 50 ug/ml after 48-96 hr by agar cup diffusion method; settings: read-out: DIZ
Aspergillus clavatus [26] = assay: Antimicrobial activity against Aspergillus clavatus MTCC 1323 assessed as diameter of growth inhibition zone at 250 ug/ml after 48-96 hr by agar cup diffusion method; settings: read-out: DIZ
Aspergillus clavatus [27] = assay: Antimicrobial activity against Aspergillus clavatus MTCC 1323 assessed as diameter of growth inhibition zone at 25 ug/ml after 48-96 hr by agar cup diffusion method; settings: read-out: DIZ
Trichophyton rubrum [28] = assay: Antimicrobial activity against Trichophyton rubrum MTCC 296 assessed as diameter of growth inhibition zone at 250 ug/ml after 48-96 hr by agar cup diffusion method; settings: read-out: DIZ
Streptococcus pyogenes [29] = assay: Antimicrobial activity against Streptococcus pyogenes MTCC 442 assessed as diameter of growth inhibition zone at 250 ug/ml after 18-24 hr by agar cup diffusion method; settings: read-out: DIZ
Escherichia coli [30] = assay: Antimicrobial activity against Escherichia coli MTCC 443 by agar cup diffusion method
Klebsiella pneumoniae [31] = assay: Antimicrobial activity against Klebsiella pneumoniae MTCC 109 assessed as diameter of growth inhibition zone at 100 ug/ml after 18-24 hr by agar cup diffusion method; settings: read-out: DIZ
Escherichia coli [32] = assay: Antimicrobial activity against Escherichia coli MTCC 443 assessed as diameter of growth inhibition zone at 50 ug/ml after 18-24 hr by agar cup diffusion method; settings: read-out: DIZ
Penicillium [33] = assay: Antimicrobial activity against Penicillium wild strain assessed as diameter of growth inhibition zone at 50 ug/ml after 48-96 hr by agar cup diffusion method; settings: read-out: DIZ
Penicillium [34] = assay: Antimicrobial activity against Penicillium wild strain assessed as diameter of growth inhibition zone at 25 ug/ml after 48-96 hr by agar cup diffusion method; settings: read-out: DIZ
Penicillium [35] = assay: Antimicrobial activity against Penicillium wild strain by agar cup diffusion method
Aspergillus clavatus [36] = assay: Antimicrobial activity against Aspergillus clavatus MTCC 1323 assessed as diameter of growth inhibition zone at 50 ug/ml after 48-96 hr by agar cup diffusion method; settings: read-out: DIZ
Streptococcus pyogenes [37] = assay: Antimicrobial activity against Streptococcus pyogenes MTCC 442 assessed as diameter of growth inhibition zone at 25 ug/ml after 18-24 hr by agar cup diffusion method; settings: read-out: DIZ
Staphylococcus aureus [38] = assay: Antimicrobial activity against Staphylococcus aureus MTCC 96 assessed as diameter of growth inhibition zone at 250 ug/ml after 18-24 hr by agar cup diffusion method; settings: read-out: DIZ
Klebsiella pneumoniae [39] = assay: Antimicrobial activity against Klebsiella pneumoniae MTCC 109 by agar cup diffusion method
Klebsiella pneumoniae [40] = assay: Antimicrobial activity against Klebsiella pneumoniae MTCC 109 assessed as diameter of growth inhibition zone at 25 ug/ml after 18-24 hr by agar cup diffusion method; settings: read-out: DIZ
Penicillium [41] = assay: Antimicrobial activity against Penicillium wild strain assessed as diameter of growth inhibition zone at 100 ug/ml after 48-96 hr by agar cup diffusion method; settings: read-out: DIZ
Candida albicans [42] = assay: Antimicrobial activity against Candida albicans MTCC 227 assessed as diameter of growth inhibition zone at 50 ug/ml after 48-96 hr by agar cup diffusion method; settings: read-out: DIZ
Pseudomonas aeruginosa [43] = assay: Antimicrobial activity against Pseudomonas aeruginosa MTCC 1688 assessed as diameter of growth inhibition zone at 50 ug/ml after 18-24 hr by agar cup diffusion method; settings: read-out: DIZ
Pseudomonas aeruginosa [44] = assay: Antimicrobial activity against Pseudomonas aeruginosa MTCC 1688 assessed as diameter of growth inhibition zone at 100 ug/ml after 18-24 hr by agar cup diffusion method; settings: read-out: DIZ
Klebsiella pneumoniae [45] = assay: Antimicrobial activity against Klebsiella pneumoniae MTCC 109 assessed as diameter of growth inhibition zone at 250 ug/ml after 18-24 hr by agar cup diffusion method; settings: read-out: DIZ

COc1ccc(/C=C/C(=O)C2C(=O)NC(=S)NC2=O)cc1OC
zone of inhibition at 25 µg/mL (Staphylococcus aureus [1]): 11 mm | zone of inhibition at 100 µg/mL (Staphylococcus aureus [2]): 18 mm | zone of inhibition at 250 µg/mL (Penicillium [3]): 24 mm | zone of inhibition at 100 µg/mL (Aspergillus clavatus [4]): 21 mm | zone of inhibition at 250 µg/mL (Candida albicans [5]): 25 mm | zone of inhibition at 250 µg/mL (Escherichia coli [6]): 21 mm | zone of inhibition at 25 µg/mL (Trichophyton rubrum [7]): 21 mm | zone of inhibition at 50 µg/mL (Klebsiella pneumoniae [8]): 15 mm | MBC (Pseudomonas aeruginosa [9]): 200 µg/mL (≈ 598 µM) | MIC (Pseudomonas aeruginosa [9]): 200 µg/mL (≈ 598 µM) | MBC (Staphylococcus aureus [10]): 500 µg/mL (≈ 1500 µM) | MIC (Staphylococcus aureus [10]): 500 µg/mL (≈ 1500 µM) | zone of inhibition at 25 µg/mL (Escherichia coli [11]): 12 mm | zone of inhibition at 250 µg/mL (Pseudomonas aeruginosa [12]): 20 mm | zone of inhibition at 50 µg/mL (Staphylococcus aureus [13]): 15 mm | zone of inhibition at 50 µg/mL (Streptococcus pyogenes [14]): 16 mm | MFC (Aspergillus clavatus [15]): 1000 µg/mL (≈ 2990 µM) | MIC (Aspergillus clavatus [15]): 1000 µg/mL (≈ 2990 µM) | zone of inhibition at 100 µg/mL (Candida albicans [16]): 25 mm | zone of inhibition at 25 µg/mL (Candida albicans [17]): 20 mm | zone of inhibition at 25 µg/mL (Pseudomonas aeruginosa [18]): 11 mm | MFC (Candida albicans [19]): 1000 µg/mL (≈ 2990 µM) | MIC (Candida albicans [19]): 500 µg/mL (≈ 1500 µM) | MFC (Trichophyton rubrum [20]): 500 µg/mL (≈ 1500 µM) | MIC (Trichophyton rubrum [20]): 500 µg/mL (≈ 1500 µM) | zone of inhibition at 100 µg/mL (Streptococcus pyogenes [21]): 18 mm | zone of inhibition at 100 µg/mL (Escherichia coli [22]): 18 mm | MBC (Streptococcus pyogenes [23]): 100 µg/mL (≈ 299 µM) | MIC (Streptococcus pyogenes [23]): 62.5 µg/mL (≈ 187 µM) | zone of inhibition at 100 µg/mL (Trichophyton rubrum [24]): 23 mm | zone of inhibition at 50 µg/mL (Trichophyton rubrum [25]): 22 mm | zone of inhibition at 250 µg/mL (Aspergillus clavatus [26]): 23 mm | zone of inhibition at 25 µg/mL (Aspergillus clavatus [27]): 18 mm | zone of inhibition at 250 µg/mL (Trichophyton rubrum [28]): 24 mm | zone of inhibition at 250 µg/mL (Streptococcus pyogenes [29]): 21 mm | MBC (Escherichia coli [30]): 500 µg/mL (≈ 1500 µM) | MIC (Escherichia coli [30]): 500 µg/mL (≈ 1500 µM) | zone of inhibition at 100 µg/mL (Klebsiella pneumoniae [31]): 18 mm | zone of inhibition at 50 µg/mL (Escherichia coli [32]): 16 mm | zone of inhibition at 50 µg/mL (Penicillium [33]): 20 mm | zone of inhibition at 25 µg/mL (Penicillium [34]): 19 mm | MFC (Penicillium [35]): 1000 µg/mL (≈ 2990 µM) | MIC (Penicillium [35]): 1000 µg/mL (≈ 2990 µM) | zone of inhibition at 50 µg/mL (Aspergillus clavatus [36]): 20 mm | zone of inhibition at 25 µg/mL (Streptococcus pyogenes [37]): 12 mm | zone of inhibition at 250 µg/mL (Staphylococcus aureus [38]): 20 mm | MBC (Klebsiella pneumoniae [39]): 500 µg/mL (≈ 1500 µM) | MIC (Klebsiella pneumoniae [39]): 250 µg/mL (≈ 748 µM) | zone of inhibition at 25 µg/mL (Klebsiella pneumoniae [40]): 14 mm | zone of inhibition at 100 µg/mL (Penicillium [41]): 22 mm | zone of inhibition at 50 µg/mL (Candida albicans [42]): 24 mm | zone of inhibition at 50 µg/mL (Pseudomonas aeruginosa [43]): 15 mm | zone of inhibition at 100 µg/mL (Pseudomonas aeruginosa [44]): 18 mm | zone of inhibition at 250 µg/mL (Klebsiella pneumoniae [45]): 19 mm

Source: ChEMBL document CHEMBL3044736, “Synthesis, characterization, solvatochromic properties, and antimicrobial evaluation of 5-acetyl-2-thioxo-dihydro-pyrimidine-4,6-dione-based chalcones” (2013)
